Results reported in US20110189157A1, “USE OF HUMAN HYALURONIDASES FOR AXONAL REGROWTH” (priority 2008, published 2011).

Legend:
[1] = test system: damaged adult nigrostriatal tract; conditions: rat, cited from earlier work
[2] = Chondroitinase activity assay: cleavage of biotin-labelled CS in solution, intact substrate detected on protamine-coated microplate; conditions: 0.8-100 milliunits enzyme; biotin-CS 0.01 μg/ml; 37° C., 1 h; FIG. 3
Description: A solid phase, for example a microtiter plate, is coated with protamine by incubation of 100 μl/well of a 0.003% solution of protamine sulfate at 37° C. for 24 hours. Thereafter, plates were washed 3 times with A dest. and stored in the dark.
Plates were washed 3 times with buffer (PBS/0.01% Tween 20) and Avidin-POD (1 μg/ml in PBS/5% BSA) was added.
After 15 min plates were washed 5 times with PBS and 100 μl OPD-solution (0.667 mg/ml) was added.
After 15 min the reaction was stopped by addition of 100 μl of 0.5 Mol H2SO4. OD was measured at 490 nm using a microplate reader.
The enzyme reaction is carried out by mixing 50 μl of biotin-labelled CS at 0.01 μg/ml with increasing amounts of chondroitinase ABC, e.g. 0.8-100 nano-units of chondroitinase ABC. Samples were brought to a volume of 100 μl by addition of PBS.
This mixture is incubated at 37° C. for 1 h. Thereafter the enzyme was inactivated by heating at 100° C. for 10 min.
Samples (85 μl of the samples) were transferred to the CS-BP (protamine)-coated microplate and incubated for 1 hour at room temperature.
The enzyme reaction is carried out by mixing 50 μl of biotin-labelled CS at 0.01 μg/ml with increasing amounts of hyaluronidase, e.g. 0.8-100 milliunits of hyaluronidase. Samples were brought to a volume of 100 μl by addition of PBS.
This mixture is incubated at 37° C. for 1 h. […]

Row | degradation of biotin-labelled chondroitin sulfate (decrease in signal, OD 490 nm) [2] | Substance | persistence of active enzyme in the injured CNS ([1]; in vivo) | axon regeneration ([1]; single dose injected adjacent to damaged nigrostriatal tract)
1 |  | chondroitinase ABC | at least 10 days | promoted axon regeneration
2 | dose-dependent degradation | hyaluronidase |  | 
